In patent US6525001B1, “Substituted pyrimidine and pyridine herbicides” (Mid-American Commercialization Corporation, priority 1997, dated 2003):

Tests used:
Format in all cases: in vivo
Design in all cases: key: 0 is no effect; 10 is complete control
[1] = system: barnyardgrass (Echinochloa crus-galli); assay: Test A pre-/postemergence; settings: 0 to 10 scale
Experimental: (§1) Seeds of barnyardgrass (Echinochloa crus-galli), crabgrass (Digitaria spp.), morningglory (Ipomoea spp.), and velvetleaf (Abutilon theophrasti) were planted into a sandy loam soil and treated preemergence by soil drench with test chemicals formulated in a non-phytotoxic solvent mixture which includes a surfactant. At the same time, these crop and weed species were also treated postemergence sprayed to runoff, with test chemicals formulated in the same manner. Plants ranged in height from two to eighteen cm and were in the one to two leaf stage for the postemergence treatment. Treated plants and untreated controls were maintained in a greenhouse for approximately eleven days, after which all treated plants were compared to untreated controls and visually evaluated for injury. Plant response ratings, summarized in Table A, are based on a 0 to 10 scale where 0 is no effect and 10 is complete control. A dash (−) response means no test results.

[2] = system: crabgrass (Digitaria spp.); assay: Test A pre-/postemergence; settings: 0 to 10 scale
Experimental: as §1

[3] = system: morningglory (Ipomoea spp.); assay: Test A pre-/postemergence; settings: 0 to 10 scale
Experimental: as §1

[4] = system: velvetleaf (Abutilon theophrasti); assay: Test A pre-/postemergence; settings: 0 to 10 scale
Experimental: as §1

[5] = system: blackgrass (Alopecurus myosuroides); assay: Test B pre-/postemergence
Method in brief: (§2)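 Scored visually 0 (none) to 10 (complete control) against untreated plants after twelve to sixteen greenhouse days. Test chemicals, formulated in surfactant-containing non-phytotoxic solvent, applied to soil after planting and, separately, onto 1- to 4-leaf (2–18 cm) plants.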

[6] = system: broadleaf signalgrass (Brachiaria decumbens); assay: Test B pre-/postemergence
Method in brief: as §2

[7] = system: bamyardgrass (Echinochloa crus-galli); assay: Test B flood test; settings: for Plant response rating, Barnyardgrass: Postemergence (flood test species)
Method in brief: (§3)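 Flood test on plants grown to the 2-leaf stage; treated plants kept in greenhouse twelve to sixteen days, then visually rated against controls on a 0 (no effect) to 10 (complete control) scale.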

[8] = system: duck salad (Heteranthera limosa); assay: Test B flood test; settings: for Plant response rating, Ducksalad: Postemergence (flood test species)
Method in brief: as §3

[9] = system: rice (Oryza sativa); assay: Test B flood test; settings: for Plant response rating, Rice: Postemergence (flood test species)
Method in brief: as §3

[10] = system: smallflower flatsedge (Cyperus difformis); assay: Test B flood test; settings: for Plant response rating, S. Flatsedge: Postemergence (flood test species)
Method in brief: as §3

[11] = PRE SOIL DRENCH, Rate 2000 g/ha
[12] = postemergence SPRAYED TO RUNOFF, Rate 1000 g/ha
[13] = Preemergence, Rate 62 g/ha, scale of 0 to 10
[14] = Rate 62 g/ha, Postemergence (flood test)
[15] = Rate 125 g/ha, Postemergence section (flood test species)

Cc1cnc(-n2ccc(C(F)(F)F)n2)nc1C(=O)c1cccc(C(F)(F)F)c1 [Compound 59]
8: Plant response rating, Morningglory [3, 12] | Plant response rating, Barnyardgrass ([7]; Rate 500 g/ha) | Plant response rating, S. Flatsedge ([10]; Rate 250 g/ha)
10: Plant response rating, Barnyardgrass [1, 11] | Plant response rating, Crabgrass [2, 11] | Plant response rating, Velvetleaf [4, 11]
7: Plant response rating, Blackgrass ([5]; Rate 250 g/ha, Preemergence) | B. signalgrass plant response rating ([6]; Rate 62 g/ha, Preemergence) | Plant response rating, Ducksalad ([8]; Rate 500 g/ha) | S. Flatsedge plant response rating [10, 14] | S. Flatsedge plant response rating [10, 15]
6: Plant response rating, Blackgrass ([5]; Rate 500 g/ha, Postemergence) | Plant response rating, Ducksalad ([8]; Rate 250 g/ha) | Plant response rating, Rice ([9]; Rate 500 g/ha)
4: Barnyardgrass plant response rating [7, 15] | Ducksalad plant response rating [8, 15] | Plant response rating, Rice ([9]; Rate 250 g/ha)
3: Blackgrass plant response rating ([5]; Rate 125 g/ha, Postemergence) | Plant response rating, Blackgrass ([5]; Rate 125 g/ha, Preemergence) | Plant response rating, B. signalgrass ([6]; Rate 500 g/ha, Postemergence) | Barnyardgrass plant response rating [7, 14] | Ducksalad plant response rating [8, 14] | Rice plant response rating [9, 15]
9: Plant response rating, Barnyardgrass [1, 12] | Plant response rating, Crabgrass [2, 12] | Plant response rating, Morningglory [3, 11] | Plant response rating, Velvetleaf [4, 12] | Plant response rating, Blackgrass ([5]; Rate 500 g/ha, Preemergence) | Plant response rating, B. signalgrass ([6]; Rate 125 g/ha, Preemergence) | Plant response rating, B. signalgrass ([6]; Rate 250 g/ha, Preemergence) | Plant response rating, B. signalgrass ([6]; Rate 500 g/ha, Preemergence) | Plant response rating, S. Flatsedge ([10]; Rate 500 g/ha)
5: Plant response rating, Blackgrass ([5]; Rate 250 g/ha, Postemergence) | Plant response rating, Barnyardgrass ([7]; Rate 250 g/ha)
2: Plant response rating, Blackgrass [5, 13] | Blackgrass plant response rating ([5]; Rate 62 g/ha, Postemergence) | B. signalgrass plant response rating ([6]; Rate 62 g/ha, Postemergence) | B. signalgrass plant response rating ([6]; Rate 125 g/ha, Postemergence) | Plant response rating, B. signalgrass ([6]; Rate 250 g/ha, Postemergence) | Rice plant response rating [9, 14]

Cc1cnc(-n2ccc(C(F)(F)F)n2)nc1C(=O)c1ccc(C(F)(F)F)cc1 [Compound 65]
8: Plant response rating, Crabgrass [2, 11]
5: Plant response rating, Barnyardgrass [1, 11] | Plant response rating, Crabgrass [2, 12] | Plant response rating, Velvetleaf [4, 12]
0: Plant response rating, Blackgrass [5, 13] | Blackgrass plant response rating ([5]; Rate 62 g/ha, Postemergence) | Blackgrass plant response rating ([5]; Rate 125 g/ha, Postemergence) | Plant response rating, Blackgrass ([5]; Rate 125 g/ha, Preemergence) | Plant response rating, Blackgrass ([5]; Rate 250 g/ha, Postemergence) | Plant response rating, Blackgrass ([5]; Rate 250 g/ha, Preemergence) | Plant response rating, Blackgrass ([5]; Rate 500 g/ha, Postemergence) | Plant response rating, Blackgrass ([5]; Rate 500 g/ha, Preemergence) | B. signalgrass plant response rating ([6]; Rate 62 g/ha, Preemergence) | Plant response rating, B. signalgrass ([6]; Rate 125 g/ha, Preemergence) | Barnyardgrass plant response rating [7, 14] | Barnyardgrass plant response rating [7, 15] | Plant response rating, Barnyardgrass ([7]; Rate 250 g/ha) | Plant response rating, Barnyardgrass ([7]; Rate 500 g/ha) | Ducksalad plant response rating [8, 14] | Ducksalad plant response rating [8, 15] | Plant response rating, Ducksalad ([8]; Rate 250 g/ha) | Plant response rating, Ducksalad ([8]; Rate 500 g/ha) | Rice plant response rating [9, 14] | Rice plant response rating [9, 15] | Plant response rating, Rice ([9]; Rate 250 g/ha) | Plant response rating, Rice ([9]; Rate 500 g/ha) | S. Flatsedge plant response rating [10, 14] | S. Flatsedge plant response rating [10, 15] | Plant response rating, S. Flatsedge ([10]; Rate 250 g/ha) | Plant response rating, S. Flatsedge ([10]; Rate 500 g/ha)
4: Plant response rating, Barnyardgrass [1, 12] | Plant response rating, Morningglory [3, 11] | Plant response rating, Velvetleaf [4, 11]
1: B. signalgrass plant response rating ([6]; Rate 62 g/ha, Postemergence) | B. signalgrass plant response rating ([6]; Rate 125 g/ha, Postemergence) | Plant response rating, B. signalgrass ([6]; Rate 250 g/ha, Postemergence) | Plant response rating, B. signalgrass ([6]; Rate 250 g/ha, Preemergence) | Plant response rating, B. signalgrass ([6]; Rate 500 g/ha, Postemergence)
10: Plant response rating, Morningglory [3, 12]
2: Plant response rating, B. signalgrass ([6]; Rate 500 g/ha, Preemergence)

Cc1cnc(-c2ccc(C(F)(F)F)cc2)nc1C(=O)c1cccc(C(F)(F)F)c1 [Compound 73]
3: Plant response rating, Ducksalad ([8]; Rate 500 g/ha) | Plant response rating, Rice ([9]; Rate 500 g/ha) | S. Flatsedge plant response rating [10, 14] | S. Flatsedge plant response rating [10, 15] | Plant response rating, S. Flatsedge ([10]; Rate 500 g/ha)
5: Barnyardgrass plant response rating [7, 15] | Rice plant response rating [9, 14] | Rice plant response rating [9, 15]
1: Ducksalad plant response rating [8, 14] | Ducksalad plant response rating [8, 15]
6: Plant response rating, Barnyardgrass ([7]; Rate 250 g/ha) | Plant response rating, Rice ([9]; Rate 250 g/ha) | Plant response rating, S. Flatsedge ([10]; Rate 250 g/ha)
7: Blackgrass plant response rating ([5]; Rate 62 g/ha, Postemergence) | Blackgrass plant response rating ([5]; Rate 125 g/ha, Postemergence)
8: Plant response rating, Barnyardgrass [1, 12] | Plant response rating, Blackgrass [5, 13] | B. signalgrass plant response rating ([6]; Rate 62 g/ha, Postemergence) | Plant response rating, B. signalgrass ([6]; Rate 500 g/ha, Postemergence)
4: Barnyardgrass plant response rating [7, 14] | Plant response rating, Barnyardgrass ([7]; Rate 500 g/ha)
9: Plant response rating, Barnyardgrass [1, 11] | Plant response rating, Crabgrass [2, 12] | Plant response rating, Morningglory [3, 11] | Plant response rating, Morningglory [3, 12] | Plant response rating, Velvetleaf [4, 11] | Plant response rating, Velvetleaf [4, 12] | Plant response rating, Blackgrass ([5]; Rate 125 g/ha, Preemergence) | Plant response rating, Blackgrass ([5]; Rate 250 g/ha, Postemergence) | Plant response rating, Blackgrass ([5]; Rate 500 g/ha, Postemergence) | B. signalgrass plant response rating ([6]; Rate 62 g/ha, Preemergence) | B. signalgrass plant response rating ([6]; Rate 125 g/ha, Postemergence) | Plant response rating, B. signalgrass ([6]; Rate 125 g/ha, Preemergence) | Plant response rating, B. signalgrass ([6]; Rate 250 g/ha, Postemergence) | Plant response rating, B. signalgrass ([6]; Rate 250 g/ha, Preemergence)
2: Plant response rating, Ducksalad ([8]; Rate 250 g/ha)
10: Plant response rating, Crabgrass [2, 11] | Plant response rating, Blackgrass ([5]; Rate 250 g/ha, Preemergence) | Plant response rating, Blackgrass ([5]; Rate 500 g/ha, Preemergence) | Plant response rating, B. signalgrass ([6]; Rate 500 g/ha, Preemergence)
